Assay results from US20180235917A1, “COMPOSITIONS, METHODS AND KITS FOR TREATMENT OF DIABETES AND/OR […]” (NuSirt Sciences, Inc., priority 2014, published 2018).
One block for each compound: values may come before it.

Assays:
3T3-L1 adipocytes = experiment: Fatty acid oxidation (palmitate-induced O2 consumption, Seahorse XF24) in adipocytes; assay type: cell-based, mouse; settings: 24-hour Met-Leu treatment
[1] = system: adipocytes (3T3-L1) and myotubes (C2C12); experiment: Glucose utilization (extracellular acidification), cell type not stated; assay type: cell-based, mouse; settings: compound alone
Experimental: In the absence of a fatty acid source and oxidative metabolism, glycolysis and subsequent lactate production results in extracellular acidification, which was also measured using a Seahorse Bioscience XF24 analyzer. Cells were prepared and equilibrated similar to the methods described above for fatty acid oxidation, with the exclusion of carnitine from the medium. Following instrument equilibration and three baseline measurements, glucose was injected to a final concentration of 10 mM in each well. Measurements were taken as described above utilizing the sensors for extracellular acidification rather than O2 consumption. Insulin (final concentration of 5 nM) was added to some wells as a positive control. Data for each sample were normalized to the pre-glucose injection baseline for that sample and expressed as % change from that baseline. The area under of the curve of extracellular acidification change from baseline for each sample was then calculated and used for subsequent analysis.
In the absence of a fatty acid source and oxidative metabolism, glycolysis and subsequent lactate production results in extracellular acidification, which was also measured using a Seahorse Bioscience XF24 analyzer. […] Data for each sample were normalized to the pre-glucose injection baseline for that sample and expressed as % change from that baseline. […]

C2C12 myotubes [2] = experiment: Glucose utilization (extracellular acidification response to glucose) in myotubes; assay type: cell-based, mouse
C2C12 myotubes [3] = settings: Mooney et al. 2008; cited from earlier work
[4] = system: LDL receptor knockout (Ldlr−/−) mice; experiment: Ldlr−/− mice on atherogenic diet with leucine/metformin/nicotinic acid (Example 15); assay type: in vivo, Mus musculus
[5] = system: LDL receptor knockout (LDLRKO) mice; experiment: Planned study in LDL receptor knockout mice with leucine/metformin/nicotinic acid (Example 13); assay type: in vivo, mouse
[6] = system: patients pre-diagnosed with hyperlipidemia; experiment: Planned study in patients: atherosclerotic plaque size by quantitative coronary angiography (Example 9); assay type: in vivo, human; settings: oral twice a day, 3 years; nicotinic acid 50 mg, leucine 550 mg, resveratrol 50 mg
Experimental: Patients that experience acute chest pain and are pre-diagnosed with hyperlipidemia are admitted for the randomized and double blind study. […] The treatments are administered orally twice a day, for 3 years continuously. The size of atherosclerotic plaque is measured at day 0, months 6, 12, 18, 24, 30 and 36 by quantitative coronary angiography.

[7] = system: patients pre-diagnosed with hyperlipidemia; experiment: Planned study in hyperlipidemic patients: lipids and cutaneous vasodilation (Example 8); assay type: in vivo, human; settings: for triglyceride, LDL, cholesterol and HDL levels compared to day 0: oral twice a day, 60 days
Experimental: Patients that are pre-diagnosed with hyperlipidemia are admitted for the randomized and double blind study. […] The treatments are administered orally twice a day, for 60 days continuously. […] The serum/plasma levels of triglyceride, cholesterol, LDL and HDL are measured. Cutaneous vasodilation is measured by laser-Doppler flowmeter and the discomfort level described by the patients.

Sirt1 = settings: C2C12 myotubes
[8] = system: LDL receptor knockout mice; experiment: LDL receptor knockout mice on western diet: plasma lipids, atherosclerosis, macrophage infiltration (Example 7); assay type: in vivo, mouse
Source text: LDL receptor knockout (LDLRKO) mice were obtained from Jackson Laboratories (Bar Harbor, Me.), and housed in groups under room temperature in a humidity-controlled environment with a regular light and dark cycle. The mice were provided free access to an atherogenic western diet (WD) containing 0.21% cholesterol (by weight) and 40% calories from fat and water for 4 weeks prior to treatment. For treatment, the mice were given (a) the WD diet alone, (b) WD and 24 g of leucine/kg diet, (c) WD and 24 g of leucine/kg diet and 50 mg nicotinic acid/kg diet, (d) WD and 24 g of leucine/kg diet and 250 mg nicotinic acid/kg diet, or (e) WD and 1000 mg nicotinic acid/kg diet; this is approximately equivalent to a low therapeutic dose of nicotinic acid in hypercholesterolemic humans (˜1,500 mg/day). The treatments were administered for eight weeks continuously.
Blood samples of the mice in all groups were obtained from tails of the mice at following four and eight weeks of administration. The serum/plasma levels of triglyceride, total cholesterol and cholesterol esters were measured. Following treatment, food was removed for four hours and the animals were euthanized.
Blood was collected into EDTA-coated tubes to analyze plasma lipid and cholesterol profiles. Plasma total cholesterol (TC, Pointe Scientific, Canton, Mich.), free cholesterol (FC, Wako, Richmond, Va.) and triglyceride (TG, Wako, Richmond, Va.) concentrations were measured using enzymatic assays according to manufacturer's instructions. Cholesterol ester (CE) was calculated as the difference between TC and FC.
To assess atherosclerosis, the circulatory system was perfused following euthanasia with phosphate-buffered saline (PBS) before removing the heart and aorta. The upper one-third of the heart was dissected and embedded in Optimal Cutting Temperature Compound (Sakura Tissue-Tek, Torrance, Calif.), frozen, and stored at −80° C. Blocks were serially cut at 8 μm intervals and stained with hematoxylin and 0.5% Oil Red O (Sigma-Aldrich) to evaluate aortic sinus atherosclerotic intimal area. Atherosclerotic lesion area and Oil Red O positive area were quantified using Image-Pro Plus software (Media Cybernetics, Bethesda, Md.). Whole aorta (from sinotubular junction to iliac bifurcate) was dissected and fixed in 10% formalin, and the adventitia was cleaned. Aortas were opened along the longitudinal axis and pinned onto black silicon elastomer (Rubber-Cal, Santa Ana, Calif.) for the quantification of atherosclerotic lesion area. The percentage of total aortic surface covered with atherosclerotic lesions was quantified by Image-Pro Plus software (Media Cybernetics, Bethesda, Md.) and used to determine the total lesion area.
To assess macrophage infiltration, Sections of aortic sinus were immuno-stained with rat monoclonal antibody against macrophage-specific CD68 (Clone FA11, 1:75, AbD Serotec, Raleigh, N.C.) followed by staining with alkaline phosphatase-conjugated mouse anti-rat (for CD68, 1:50) secondary antibodies (Jackson ImmunoResearch laboratories, West Grove, Pa.). Control slides contain no primary antibody. The CD68-positive areas were analyzed using Image-Pro Plus software (Media Cybernetics, Bethesda, Md.).

Caenorhabditis elegans = experiment: Lifespan of C. elegans (Example 10); assay type: in vivo; settings: basal conditions; leucine 0.5 mM, nicotinic acid 10 nM
Experimental: Eggs were hatched on a starved plate overnight. […] All treatments were added with the indicated concentrations to E. coli the agar plates. […] The worms were maintained at 20° C. throughout the duration of the study. Worms were transferred to new plates daily to eliminate progeny. […] The study was continued until the last animal was dead. Data were analyzed via Kaplan-Meier survival curves using Prism 6 (GraphPad Software) and statistical significance was determined by the Log-rank (Mantel-Cox) test.

AMPK = settings: 3T3-L1 adipocytes
[9] = nicotinic acid 50 mg, leucine 550 mg, resveratrol 50 mg
[10] = 24 hours, nicotinic acid 10 nM, leucine 0.5 mM, resveratrol 200 nM

Compound: c1cc(-c2cnn3cc(-c4ccc(OCCN5CCCCC5)cc4)cnc23)ccn1 [Compound C]
effect of the AMPK inhibitor on the Met-Leu increase in palmitate-induced fatty acid oxidation (3T3-L1 adipocytes): completely blocked this increase

Compound: N=C(N)N [Guanidine]
no-effect threshold for stimulation of glucose utilization [1]: 0.1 to 1 µM

Compound: CC(C)=CCN=C(N)N [galegine]
increase in insulin-stimulated glucose utilization (C2C12 myotubes [2]; C2C12 myotubes, 5 nM insulin, galegine 5 μM, leucine 0.5 mM): no effect
concentrations with no independent effect on basal or insulin-stimulated glucose utilization (dose response curves) (C2C12 myotubes [2]; galegine alone): up to 500 μM
concentration below which published literature shows no effect (C2C12 myotubes [3]): < 100 µM

cutaneous vasodilation compared to 1500 mg nicotinic acid [7, 9]: lower
Compound: O=C(O)c1cccnc1 [nicotinic acid]
fasting blood glucose ([4]; 8 weeks, nicotinic acid 1000 mg/kg diet, or leucine 24 g/kg + metformin 0.5 g/kg + nicotinic acid 50 mg/kg diet, vs atherogenic diet): no change
plasma LDL cholesterol ([4]; Day 56, doses as E126): significantly lower
plasma cholesterol ([4]; Day 56, doses as E126): significantly lower
plasma triglycerides ([4]; Day 56, doses as E126): significantly lower
Oil Red O staining area in the heart and aorta ([4]; doses as E126): significantly less Oil Red O staining area
atherosclerosis (histological images of heart) ([4]; doses as E126): reduced
fasting plasma insulin ([4]; doses as E126): no change
plasma insulin and HOMAIR index ([5]; diet doses: metformin 1.5 g/kg alone or 0.25 g/kg in combinations, nicotinic acid 1000 mg/kg alone or 50 mg/kg in combinations, leucine 24 g/kg): high plasma insulin and HOMAIR index
atherosclerotic lesion size and aortic macrophage infiltration relative to western diet alone ([5]; doses as E112): decrease atherosclerotic lesion size and decrease in aortic macrophage infiltration
size of atherosclerotic plaque compared to day 0 [6]: similar, without statistically significant difference
cutaneous vasodilation compared to all other groups ([7]; nicotinic acid 1500 mg alone): significant higher cutaneous vasodilation
triglyceride, LDL, cholesterol and HDL levels compared to day 0 [7, 9]: similar, without statistically significant difference
triglyceride, LDL, cholesterol and HDL levels compared to day 0 ([7]; nicotinic acid 1500 mg alone): significantly lower triglyceride, LDL and cholesterol levels, and significantly higher HDL level
concentrations that alone exert no effect (dose-response study) (Sirt1): < 100 nM
increase in Sirt1 levels (Sirt1; [10]): did not have a significant effect
decrease in aortic macrophage infiltration (CD68 positive area) ([8]; eight weeks, doses as E77): ~50%
decrease in atherosclerotic lesion size (lesion and lipid area) ([8]; eight weeks, nicotinic acid 1,000 mg/kg diet, leucine 24 g/kg diet, or leucine + nicotinic acid 50 mg/kg diet, vs western diet alone): ~50%
decrease in plasma cholesterol esters ([8]; four weeks, doses as E73): 28%
decrease in plasma triglycerides ([8]; four weeks, doses as E73): 32%
decrease in plasma total cholesterol ([8]; four weeks, western diet + nicotinic acid 1,000 mg/kg diet, leucine 24 g/kg diet, or leucine + nicotinic acid 50 or 250 mg/kg diet): 20%
effect on lifespan (Caenorhabditis elegans): no independent effect
concentrations that alone exert no effect (dose-response study) (AMPK): < 100 nM
AMPK activation (P-AMPK/AMPK) (AMPK; [10]): no significant effect
